Source: paper PMC8662641, “Site-Specific Labeling of Endogenous Proteins Using CoLDR Chemistry” (Journal of the American Chemical Society, 2021)
Where “and” joins values, the source holds several entries; their conditions need not be identical. Equal entries are not always repeated.

Columns and labels:
[1] = target: T1, BTK-1h (Homo sapiens, UniProt Q06187); assay: High-throughput screening with 1h-labeled BTK; type: binding
T1 construct: The BTK kinase domain was diluted to 2 μM in the buffer, and 2 μM 1h was added; made in house
T1 sequence (Q06187 402-655): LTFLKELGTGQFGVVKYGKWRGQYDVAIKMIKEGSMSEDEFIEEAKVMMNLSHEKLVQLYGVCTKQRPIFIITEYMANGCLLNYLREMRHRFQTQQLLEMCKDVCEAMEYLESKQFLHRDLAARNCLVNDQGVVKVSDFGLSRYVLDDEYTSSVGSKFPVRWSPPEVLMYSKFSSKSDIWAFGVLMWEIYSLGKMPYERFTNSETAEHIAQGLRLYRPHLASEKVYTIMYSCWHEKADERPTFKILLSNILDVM
Protocol: The collection was composed of BTK binding compounds obtained in our previous luminescence screen[37] (Data set S2). […] The resulting BTK-1h (50 μL) was added to the inhibitors.

[2] = target: BTK (Homo sapiens, UniProt Q06187); set-up: BTK kinase domain was expressed and purified as previously reported; made in house; method as in Reddi et al., J. Am. Chem. Soc. 2021, 143 (13), 4979–4992; conditions: ref Reddi et al., J. Am. Chem. Soc. 2021, 143 (13), 4979–4992; cited from earlier work
BTK, sequence (Q06187 402-655 limits assumed): as the sequence (Q06187 402-655) above

[3] = Dataset S2A, 200 μM compound, BTK-1h, 32 °C, 10 min

Compound | FI (650)/FI (620) [1, 3] | FI (BTK-1h)/FI (BTK-1h+Inhibitor) at 620 nm [1, 3] | FI (650)/FI (620) ([1]; Dataset S2C, BTK-1h with inhibitor) | BTK Inhibition reported in luminescence assay* [2]
Nc1cccc(-c2cc3c(Oc4cccc(O)c4)ncnc3[nH]2)c1 [PCM-0095147-003] | 1.616 | 1.107 | – | 82.1
Cl.Cl.Cl.O[C@@H](COc1cccc2ncccc12)CN1CCN(C2c3ccccc3[C@@H]3[C@H](c4ccccc42)C3(F)F)CC1 (stereo partly drawn) [PCM-0095161-003] | 0.9335 | 1.115 | – | 102.7
Cc1cc(Nc2cc(CN3CCOCC3)c3nc(C)c(Cc4ccc(Cl)cc4F)n3n2)n[nH]1 [PCM-0095222-002] | 1.03 | 1.045 | – | 56.6
C=CC(=O)Nc1ccc2ncnc(Nc3ccc(OCc4cccc(F)c4)c(Cl)c3)c2c1.Cc1ccc(S(=O)(=O)O)cc1 [PCM-0095229-002] | 0.9282 | 1.039 | – | 109.7
Cc1cc(Nc2nc(N[C@@H](C)c3ccc(F)cc3)c(C#N)cc2F)n[nH]1 [PCM-0095250-002] | 1.215 | 1.03 | – | 99.3
CN(c1ncccc1CNc1nc(Nc2ccc3c(c2)CC(=O)N3)ncc1C(F)(F)F)S(C)(=O)=O.O=S(=O)(O)c1ccccc1 [PCM-0095340-005] | 1.135 | 1.028 | – | 84.8
CC(C)(O)CC(=O)NCCn1ccc2ncnc(Nc3ccc(Oc4cccc(C(F)(F)F)c4)c(Cl)c3)c21 [PCM-0095364-002] | 0.8854 | 1.06 | – | 73.8
COc1cc(NC(=O)c2ccc(-c3ccc(Cl)cc3)o2)cc(OC)c1 [PCM-0095366-002] | 1.0001 | 1.041 | – | 56.8
Cn1cc(-c2[nH]c3cc(NC(=O)[C@H](N)C4CCCCC4)cc4c3c2C=NNC4=O)cn1 [PCM-0095372-002] | 2.04 | 1.441 | – | 111
CNC(=O)c1cc(Oc2ccc(NC(=O)Nc3cc(C(C)(C)C)nn3-c3ccc4ncccc4c3)c(F)c2)ccn1 [PCM-0095514-002] | 1.156 | 1.374 | – | 98.6
O=C(/C=C/c1ccc(O)c(O)c1)c1ccc(O)cc1O [PCM-0095622-002] | 1.0597 | 1.03 | – | 55.2
Oc1ccc(Nc2nc(-c3ccc(Cl)cc3)cs2)cc1 [PCM-0095692-002] | 1.023 | 1.009 | – | 84.8
CNCc1ccc(C)c(NC(=O)c2ccc(Nc3nc(-c4ccccc4)c4ccccc4n3)cc2)c1 [PCM-0095748-002] | 1.264 | 1.088 | – | 79.5
O=C(O)c1ccc(C=C2SC(=S)N(c3cccc(C(F)(F)F)c3)C2=O)cc1 [PCM-0095759-002] | 1.083 | 1.262 | – | 54.1
C=CC(=O)Nc1cccc(Nc2nc(Nc3ccc(OCCOC)cc3)ncc2F)c1 [PCM-0095787-002] | 1.569 | 1.288 | – | 90.3
C#CC[C@H](c1nc2cc(Cl)ccc2c(=O)n1Nc1ccccc1)N(CCCN)C(=O)c1cccc(Cl)c1F [PCM-0095802-002] | 1.024 | 1.031 | – | 52.5
Cc1cnc(Nc2ccc(F)cc2Cl)nc1-c1c[nH]c(C(=O)N[C@H](CO)c2cccc(Cl)c2)c1 [PCM-0213398-002] | 1.007 | 1.033 | – | 60
CC(C)N1CCN(Cc2cnc(-c3cc(-c4cccc5[nH]ccc45)cc4[nH]ncc34)o2)CC1 [PCM-0213407-002] | 0.9167 | 1.042 | – | 51.7
CN(C)C/C=C/C(=O)Nc1ccc(C(=O)Nc2cccc(Nc3ncc(Cl)c(-c4c[nH]c5ccccc45)n3)c2)cc1 [PCM-0213464-002, THZ1 2HCl] | 2.745 | 2.341 | 2.341 | 116.6
CC1=C(O)C(=O)C=C2C1=CC=C1[C@@]2(C)CC[C@@]2(C)[C@@H]3C[C@](C)(C(=O)O)CC[C@]3(C)CC[C@]12C [PCM-0214611-001] | 0.9422 | 1.014 | – | 67.7
O=c1cc(-c2ccccc2)oc2cc(O)c(O)c(O)c12 [PCM-0214670-001] | 2.028 | 1.072 | – | 79.4
Cc1cc(N2CCOCC2)cc2[nH]c(-c3c(NC[C@@H](O)c4cccc(Cl)c4)cc[nH]c3=O)nc12 [PCM-0214699-001] | 1.235 | 1.093 | – | 109
COc1cccc2c1C(=O)c1c(O)c3c(c(O)c1C2=O)C[C@@](O)(C(=O)CO)C[C@@H]3O[C@H]1C[C@H](N)[C@H](O[C@@H]2CCCCO2)[C@H](C)O1 [PCM-0214749-001] | 0.7711 | 1.012 | – | 53.7
Cc1cc(-c2ccc(N=Nc3ccc4c(S(=O)(=O)[O-])cc(S(=O)(=O)[O-])c(N)c4c3O)c(C)c2)ccc1N=Nc1ccc2c(S(=O)(=O)[O-])cc(S(=O)(=O)[O-])c(N)c2c1O.[Na+].[Na+].[Na+].[Na+] [PCM-0214845-001] | – | 7.121 | – | 125.3

Second part, led by results:

FI (650)/FI (620) [1, 3] | FI (BTK-1h)/FI (BTK-1h+Inhibitor) at 620 nm [1, 3] | FI (650)/FI (620) ([1]; Dataset S2C, BTK-1h with inhibitor) | Compound | BTK Inhibition reported in luminescence assay* [2]
1.117 | 1.096 | – | CCc1cccc(CC)c1NC(=O)N1Cc2[nH]nc(NC(=O)c3ccc(N4CCN(C)CC4)cc3)c2C1 [PCM-0095127-002] | 65.5
0.9795 | 1.036 | – | Cc1[nH]c(/C=C2\C(=O)Nc3ccccc32)c(C)c1CCC(=O)O [PCM-0095149-002] | 52.4
1.503 | 1.506 | – | O=C(Nc1cccc2c(=O)cc(-c3nn[nH]n3)oc12)c1ccc(OCCCCc2ccccc2)cc1 [PCM-0095155-002] | 73.8
1.022 | 1.075 | – | Cc1ccc(C(=O)Nc2ccc(CN3CCN(C)CC3)c(C(F)(F)F)c2)cc1C#Cc1cnc2cccnn12 [PCM-0095174-003] | 92.4
1.3013 | 1.347 | – | O=C(O)C1(Cc2cccc(Nc3nccs3)n2)CCC(Oc2cccc(Cl)c2F)CC1 (stereo not drawn) [PCM-0095334-002] | 102.1
1.034 | 1.021 | – | Cc1ccccc1C(=O)Nc1ccc(C(=O)N2CCCC(N(C)C)c3ccccc32)cc1 (stereo not drawn) [PCM-0095424-002] | 70
1.1262 | 1.0184 | – | CC1=C(C(=O)OC(C)C)C(c2cccc([N+](=O)[O-])c2)C(C(=O)OC2CN(C(c3ccccc3)c3ccccc3)C2)=C(N)N1 (stereo not drawn) [PCM-0095544-002] | 70
1.026 | 1.04 | – | CN(CC(=O)N(Cc1ccc(C2CCCCC2)cc1)c1ccc(C(=O)O)cc1)S(=O)(=O)c1c(F)c(F)c(F)c(F)c1F [PCM-0095763-002] | 68.7
1.233 | 0.999 | – | O=C(O)c1ccc(N2C(=O)/C(=C/c3ccc(-c4ccc([N+](=O)[O-])cc4)o3)C=C2c2ccccc2)cc1 [PCM-0095764-003] | 98.1
0.8921 | 1.024 | – | Cc1cc(C)nc(NS(=O)(=O)c2ccc(NC(=S)NC(=O)COc3ccc(Br)cc3Cl)cc2)n1 [PCM-0095801-002] | 59.5
2.739 | 1.077 | – | CCOC(=O)c1ccc(N2NC(=O)/C(=C/c3ccc([N+](=O)[O-])o3)C2=O)cc1 [PCM-0095807-002] | 64.9
0.9908 | 1.0756 | – | Cc1nc(Nc2n[nH]c3c2CN(C(=O)N[C@H](CN(C)C)c2ccccc2)C3(C)C)c2sccc2n1 [PCM-0095819-002] | 72.4
1.754 | 1.03 | – | COC(=O)C1=C(C)NC(C)=C(C(=O)O[C@@H]2CCCN(Cc3ccccc3)C2)[C@@H]1c1cccc([N+](=O)[O-])c1.Cl [PCM-0214706-001] | 80.9
1.073 and 1.008 | 1.009 and 1.024 | – | Cc1ccc(-n2[nH]c(C)c(N=Nc3cccc(-c4cccc(C(=O)O)c4)c3O)c2=O)cc1C [PCM-0214811-001] | 80.2
